Where “and” joins values, the source holds several entries; their conditions need not be identical. Equal entries are not always repeated. Toxic doses and inconclusive results are not listed.
System: L1210 leukemia ip in BDF1 mice, survival T/C
Test: NCI In Vivo Anticancer Drug Screen. Data for tumor model L1210 Leukemia (intraperitoneal) in B6D2F1 (BDF1) mice
Details: endpoint: mean survival time, higher = longer survival
How it was run: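 Tumor cells were implanted, animals were treated, and survival was followed. The result divides the treated measurement by the vehicle-control measurement.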

[1] = dose: 100.0 mg/kg/injection, schedule: Q04DX002 (ip), vehicle: Klucel (hydroxypropylcellulose) (HPC)
[2] = dose: 100.0 mg/kg/injection, schedule: Q04DX003 (ip), vehicle: Klucel (hydroxypropylcellulose) (HPC)
[3] = dose: 200.0 mg/kg/injection, schedule: Q04DX003 (ip), vehicle: Klucel (hydroxypropylcellulose) (HPC)
[4] = dose: 400.0 mg/kg/injection, schedule: Q04DX003 (ip), vehicle: Klucel (hydroxypropylcellulose) (HPC)
[5] = dose: 100.0 mg/kg/injection, schedule: Q01DX001 (ip), vehicle: saline
[6] = dose: 200.0 mg/kg/injection, schedule: Q01DX001 (ip), vehicle: saline
[7] = dose: 400.0 mg/kg/injection, schedule: Q01DX001 (ip), vehicle: saline
[8] = dose: 100.0 mg/kg/injection, schedule: Q01DX001 (ip), vehicle: Klucel (hydroxypropylcellulose) (HPC)
[9] = dose: 200.0 mg/kg/injection, schedule: Q01DX001 (ip), vehicle: Klucel (hydroxypropylcellulose) (HPC)
[10] = dose: 100.0 mg/kg/injection, schedule: Q01DX009 (ip), vehicle: saline
[11] = dose: 100.0 mg/kg/injection, schedule: Q04DX003 (ip), vehicle: other
[12] = dose: 200.0 mg/kg/injection, schedule: Q04DX003 (ip), vehicle: other
[13] = dose: 400.0 mg/kg/injection, schedule: Q04DX003 (ip), vehicle: other
[14] = dose: 100.0 mg/kg/injection, schedule: Q01DX001 (ip), vehicle: carboxymethylcellulose (CMC)
[15] = dose: 200.0 mg/kg/injection, schedule: Q01DX001 (ip), vehicle: carboxymethylcellulose (CMC)
[16] = dose: 400.0 mg/kg/injection, schedule: Q01DX001 (ip), vehicle: carboxymethylcellulose (CMC)
[17] = dose: 100.0 mg/kg/injection, schedule: Q04DX003 (ip), vehicle: saline with Tween-80
[18] = dose: 200.0 mg/kg/injection, schedule: Q04DX003 (ip), vehicle: saline with Tween-80
[19] = dose: 400.0 mg/kg/injection, schedule: Q04DX003 (ip), vehicle: saline with Tween-80
[20] = dose: 50.0 mg/kg/injection, schedule: Q01DX001 (ip), vehicle: saline
[21] = dose: 100.0 mg/kg/injection, schedule: Q04DX003 (ip), vehicle: saline
[22] = dose: 200.0 mg/kg/injection, schedule: Q04DX003 (ip), vehicle: saline
[23] = dose: 400.0 mg/kg/injection, schedule: Q04DX003 (ip), vehicle: saline
[24] = dose: 100.0 mg/kg/injection, schedule: Q01DX009 (ip), vehicle: Klucel (hydroxypropylcellulose) (HPC)
[25] = dose: 200.0 mg/kg/injection, schedule: Q01DX009 (ip), vehicle: Klucel (hydroxypropylcellulose) (HPC)
[26] = dose: 100.0 mg/kg/injection, schedule: Q01DX001 (ip), vehicle: saline with Tween-80
[27] = dose: 200.0 mg/kg/injection, schedule: Q01DX001 (ip), vehicle: saline with Tween-80

For CCCCCCCCCCCCCCCCNC(=S)NCCCCCCCCCCCCCCCC, the T/C (dose: 25.0 mg/kg/injection, schedule: Q04DX002 (ip), vehicle: Klucel (hydroxypropylcellulose) (HPC)) was 93 % of control, the T/C (dose: 50.0 mg/kg/injection, schedule: Q04DX002 (ip), vehicle: Klucel (hydroxypropylcellulose) (HPC)) was 90 % of control and the T/C [1] was 102 % of control. The T/C [2] was 95 % of control, the T/C [3] was 101 % of control and the T/C [4] was 88 % of control.
For COc1cc(Nc2c3ccccc3nc3ccccc23)ccc1NS(C)(=O)=O, the T/C (dose: 10.0 mg/kg/injection, schedule: Q01DX009 (ip), vehicle: saline with Tween-80) was 154 % of control.
In the case of CNC(COC(=O)c1ccc(N)cc1)C1CCCCC1 (stereo not drawn), the T/C (dose: 75.0 mg/kg/injection, schedule: Q01DX001 (ip), vehicle: saline) is reported as 97 % of control.
In the case of CCOc1ccccc1/C=N/Nc1c2ccccc2nc2ccccc12, the T/C [5] is reported as 90 % of control, the T/C [6] is reported as 97 % of control and the T/C [7] is reported as 92 % of control.
With COC1=NS(=O)(=O)N=C(N(C)C)O1 the T/C [8] was 105 % of control, the T/C [2] was 96 % of control and the T/C [9] was 105 % of control. For the same molecule, the T/C [3] was 96 % of control, the T/C (dose: 400.0 mg/kg/injection, schedule: Q01DX001 (ip), vehicle: Klucel (hydroxypropylcellulose) (HPC)) was 103 % of control and the T/C [4] was 97 % of control.
CCCC(=O)C(CC)C(O)(C(F)(F)F)C(F)(F)F (stereo not drawn) was tested, and the T/C [10] was 92 % of control and the T/C (dose: 200.0 mg/kg/injection, schedule: Q01DX009 (ip), vehicle: saline) was 94 % of control.
For NC(=O)C1=CN(Cc2ccc(F)cc2)c2ccccc2C1, the T/C [11] was 107 % of control, the T/C [12] was 94 % of control and the T/C [13] was 102 % of control.
O=S(=O)(NCCCl)c1cc(Cl)c(Cl)cc1Cl was tested, and the T/C [14] was 97 % of control, the T/C [15] was 94 % of control and the T/C [16] was 94 % of control.
In the case of CCOC(=O)C1=C(C)NC(C)=C(C(=O)OCC)C1c1ccc(Cl)cc1, the T/C [17] is reported as 98 % of control, the T/C [18] is reported as 93 % of control and the T/C [19] is reported as 88 % of control.
For O=C(O)C[P+](c1ccccc1)(c1ccccc1)c1ccccc1, the T/C [20] was 106 % of control and the T/C [5] was 112 % of control.
With O=C1OC2CC3CC2C1C3C(=O)N1CCOCC1 (stereo not drawn) the T/C [21] was 100 % of control and 96 % of control, the T/C [22] was 91 % of control and 98 % of control and the T/C [23] was 100 % of control and 98 % of control.
In the case of O=C(C[n+]1ccc2ccccc2c1)c1cccc([N+](=O)[O-])c1, the T/C [17] is reported as 105 % of control, the T/C [18] is reported as 97 % of control and the T/C [19] is reported as 100 % of control.
C=CC[P+](CCCC)(CCCC)CCCC was tested, and the T/C (dose: 6.25 mg/kg/injection, schedule: Q04DX003 (ip), vehicle: saline) was 102 % of control and the T/C (dose: 12.5 mg/kg/injection, schedule: Q04DX003 (ip), vehicle: saline) was 91 % of control.
In the case of O=C(Nc1cccc(O)c1)c1ccc([N+](=O)[O-])cc1, the T/C [24] is reported as 93 % of control, the T/C [25] is reported as 90 % of control and the T/C (dose: 400.0 mg/kg/injection, schedule: Q01DX009 (ip), vehicle: Klucel (hydroxypropylcellulose) (HPC)) is reported as 90 % of control.
For CCOC(=O)c1cc(Cl)c2ccccc2n1, the T/C [5] was 96 % of control, the T/C [6] was 98 % of control and the T/C [7] was 96 % of control.
For C1=CC2C1C1(Cc3ccccc3)N=NC2(Cc2ccccc2)C2C=CC21 (stereo not drawn), the T/C [1] was 97 % of control, the T/C (dose: 200.0 mg/kg/injection, schedule: Q04DX002 (ip), vehicle: Klucel (hydroxypropylcellulose) (HPC)) was 94 % of control and the T/C (dose: 400.0 mg/kg/injection, schedule: Q04DX002 (ip), vehicle: Klucel (hydroxypropylcellulose) (HPC)) was 87 % of control.
In the case of O=C(O)/C(=C\c1ccc(Cl)cc1)c1cccc2ccccc12, the T/C (dose: 50.0 mg/kg/injection, schedule: Q04DX003 (ip), vehicle: Klucel (hydroxypropylcellulose) (HPC)) is reported as 92 % of control, the T/C [24] is reported as 98 % of control and the T/C [25] is reported as 100 % of control. For the same molecule, the T/C [3] was 87 % of control.
CC1=C2CC3CCC(C)C2(CC1)C3(C)C (stereo not drawn) was tested, and the T/C [10] was 88 % of control and the T/C (dose: 400.0 mg/kg/injection, schedule: Q01DX009 (ip), vehicle: saline) was 87 % of control.
In the case of Cc1ccc(S(=O)(=O)OCCC2(C)CC2)cc1, the T/C [26] is reported as 93 % of control, the T/C [27] is reported as 90 % of control and the T/C (dose: 400.0 mg/kg/injection, schedule: Q01DX001 (ip), vehicle: saline with Tween-80) is reported as 90 % of control.
c1ccc2c(c1)[nH]c1c[n+]3c(c[n+]12)[nH]c1ccccc13 was tested, and the T/C [20] was 107 % of control, the T/C [5] was 98 % of control and the T/C [6] was 113 % of control.
With COc1ccc(N=Cc2ccccc2O)cc1 the T/C [11] was 100 % of control, the T/C [12] was 96 % of control and the T/C [13] was 98 % of control.
In the case of Nc1nc2c(c(=O)[nH]1)N=C(CCNc1ccc(C(=O)O)cc1)CN2, the T/C [5] is reported as 105 % of control, the T/C [6] is reported as 109 % of control and the T/C [7] is reported as 109 % of control.
COc1ccc(C=O)cc1Br was tested, and the T/C [2] was 102 % of control, the T/C [3] was 97 % of control and the T/C [4] was 95 % of control.
For CCNC(=S)OC1CCC2(C)C(=CCC3C2CCC2(C)C(C(C)CCC(CC)C(C)C)CCC32)C1 (stereo not drawn), the T/C (dose: 100.0 mg/kg/injection, schedule: Q04DX002 (ip), vehicle: saline with Tween-80) was 87 % of control, the T/C (dose: 200.0 mg/kg/injection, schedule: Q04DX002 (ip), vehicle: saline with Tween-80) was 87 % of control and the T/C (dose: 400.0 mg/kg/injection, schedule: Q04DX002 (ip), vehicle: saline with Tween-80) was 94 % of control.
With CCCCN(CCCC)C(=O)c1[nH]cnc1/N=N\N(C)C the T/C (dose: 50.0 mg/kg/injection, schedule: Q01DX009 (ip), vehicle: saline with Tween-80) was 117 % of control, the T/C [26] was 106 % of control and the T/C (dose: 100.0 mg/kg/injection, schedule: Q01DX009 (ip), vehicle: saline with Tween-80) was 108 % of control. The T/C [27] was 118 % of control.
For CC(C)SC(=S)Nc1ccc(Cl)c(Cl)c1, the T/C (dose: 30.0 mg/kg/injection, schedule: Q04DX003 (ip), vehicle: saline) was 95 % of control, the T/C (dose: 60.0 mg/kg/injection, schedule: Q04DX003 (ip), vehicle: saline) was 98 % of control and the T/C (dose: 120.0 mg/kg/injection, schedule: Q04DX003 (ip), vehicle: saline) was 95 % of control.
With CSc1ccnc2n[nH]nc12 the T/C [8] was 102 % of control, the T/C [2] was 94 % of control and the T/C [9] was 104 % of control. For the same molecule, the T/C [3] was 101 % of control.
With CCCCOCCCNC1=C(Cl)C(=O)c2ccccc2C1=O the T/C (dose: 12.5 mg/kg/injection, schedule: Q01DX001 (ip), vehicle: carboxymethylcellulose (CMC)) was 92 % of control, the T/C (dose: 25.0 mg/kg/injection, schedule: Q01DX001 (ip), vehicle: carboxymethylcellulose (CMC)) was 96 % of control and the T/C (dose: 50.0 mg/kg/injection, schedule: Q01DX001 (ip), vehicle: carboxymethylcellulose (CMC)) was 105 % of control.
For CC1(CCCc2ccc(N)cc2)N=C(N)N=C(N)N1c1ccccc1 (stereo not drawn), the T/C (dose: 50.0 mg/kg/injection, schedule: Q01DX001 (ip), vehicle: Klucel (hydroxypropylcellulose) (HPC)) was 106 % of control, the T/C [8] was 112 % of control and the T/C [9] was 110 % of control.
For C=CCSc1nc(N)nc2c1nc(SCC=C)n2C1OC(CO)C(O)C1O (stereo not drawn), the T/C (dose: 50.0 mg/kg/injection, schedule: Q01DX005 (ip), vehicle: saline) was 93 % of control, the T/C (dose: 100.0 mg/kg/injection, schedule: Q01DX005 (ip), vehicle: saline) was 102 % of control and the T/C (dose: 200.0 mg/kg/injection, schedule: Q01DX005 (ip), vehicle: saline) was 100 % of control.
For NC(=S)NCCO, the T/C [21] was 105 % of control, the T/C [22] was 98 % of control and the T/C [23] was 100 % of control.
With Cc1ccccc1C1=CCCCCC1 the T/C [20] was 93 % of control, the T/C [5] was 93 % of control and the T/C [6] was 98 % of control. For the same molecule, the T/C [7] was 107 % of control.
In the case of CCN(CC)C(C)(O)CN (stereo not drawn), the T/C [5] is reported as 98 % of control and the T/C [6] is reported as 103 % of control.
c1ccc(N2CNN(c3ccccc3)CN2)cc1 was tested, and the T/C [14] was 86 % of control, the T/C [15] was 90 % of control and the T/C [16] was 95 % of control.

Reference: PubChem BioAssay AID248 (DTP/NCI, 2004)
